Experimental findings from ChEMBL document CHEMBL1201862, “PubChem BioAssay data set” (2004) are described below.

Some test systems named below: HOP-62; OVCAR-4; SK-OV-3; SNB-75; IGROV-1; Malme-3M; CCRF-CEM; OVCAR-5; NCI-H23; T47D; SR; NCI/ADR-RES; SF-539; HCT-116; A498; UACC-257; OVCAR-3; SNB-19; U-251; CAKI-1.
Holding throughout (assay): inhibition of tumour cell growth, NCI panel, 48 h

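Grown in 96-well plates, cells were treated for 48 hours with each compound at five concentrations. Insufficient inhibition: endpoint recorded as highest concentration tested. At the GI50, growth is halved.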 Activity calls are given as the source filed them. No stated cut-off is given here; in the data, active = GI50 up to about 1.1 µM and inactive = higher.

As for `CCCCCCC(=O)OC[n+]1ccc2c(C)c3[nH]c4ccc(OC)cc4c3c(C)c2c1`, the GI50 is 0.105 µM (active) with HOP-62; 0.679 µM (active) in the experiment on OVCAR-4; 0.585 µM (active) in the experiment with SK-OV-3; 1.13 µM (inactive) with SNB-75; 0.268 µM (active) in the experiment with IGROV-1; 1.01 µM (active) in the experiment with Malme-3M. For the same compound, the GI50 is 0.0706 µM (active) in the experiment with CCRF-CEM; 1.05 µM (active) in the experiment with OVCAR-5; 0.329 µM (active) in the experiment on NCI-H23; 0.883 µM (active) in the experiment with T47D; 0.0486 µM (active) in the experiment on SR; 0.2 µM (active) with NCI/ADR-RES. Also, the GI50 was 0.299 µM (active) in the experiment with SF-539; 0.054 µM (active) in the experiment on HCT-116; 0.863 µM (active) in the experiment on A498; 1.01 µM (active) in the experiment with UACC-257; 1.57 µM (inactive) in the experiment with OVCAR-3; 0.308 µM (active) in the experiment on SNB-19. Further, the figures for the GI50 in the experiment on U-251 and in the experiment with CAKI-1 were 0.282 µM (active) and 0.865 µM (active), respectively.

`COc1cc(C2c3[nH]c4ccccc4c3[C@@H](Nc3ccc(C#N)cc3)[C@H]3COC(=O)N23)cc(OC)c1O` (stereo partly drawn): the GI50 was 0.192 µM (active) with HOP-62; 1.84 µM (inactive) in the experiment on OVCAR-4; 0.254 µM (active) in the experiment on SK-OV-3; 0.227 µM (active) in the experiment on SNB-75; 0.501 µM (active) in the experiment with IGROV-1; 0.279 µM (active) in the experiment with Malme-3M. Besides, the GI50 was 0.054 µM (active) with CCRF-CEM; 0.316 µM (active) in the experiment with OVCAR-5; 0.238 µM (active) in the experiment with NCI-H23; 0.345 µM (active) in the experiment on T47D; 0.0113 µM (active) in the experiment on SR; 9.98 µM (inactive) with NCI/ADR-RES. For the same compound, the GI50 in the experiment on SF-539 was 0.0618 µM (active); in the experiment with HCT-116 it was 0.233 µM (active); in the experiment with A498 it was 0.0516 µM (active); in the experiment on UACC-257, 0.548 µM (active); in the experiment on OVCAR-3, 0.441 µM (active); in the experiment with SNB-19, 0.235 µM (active). In addition, the GI50 in the experiment with U-251 is 0.175 µM (active); in the experiment with CAKI-1 it was 0.213 µM (active).

As for `CC(O)CC(O)(C(F)(F)F)C(F)(F)F` (stereo not drawn), the GI50 in the experiment with HOP-62, in the experiment with OVCAR-4, in the experiment with SK-OV-3, in the experiment on SNB-75, with IGROV-1 and with Malme-3M was > 10 µM (inactive) throughout. For the same compound, the GI50 in the experiment with CCRF-CEM, with NCI-H23, with T47D, in the experiment with SR, in the experiment on NCI/ADR-RES and in the experiment with SF-539 was > 10 µM (inactive) each time. Moreover, the GI50 in the experiment on HCT-116, in the experiment on A498, in the experiment with UACC-257, in the experiment with OVCAR-3, in the experiment with SNB-19 and with U-251 was > 10 µM (inactive) throughout. Also, in the experiment on CAKI-1, the GI50 is > 10 µM (inactive).

Consider `Cc1ccc(S(=O)(=O)N/N=C2\C=CC3(CC2)C(=O)N(I)c2ccccc23)cc1` (stereo not drawn), for which the GI50 in the experiment with HOP-62 was > 100 µM (inactive); in the experiment on OVCAR-4, > 100 µM (inactive); in the experiment on SK-OV-3, > 100 µM (inactive); in the experiment on SNB-75, > 100 µM (inactive); in the experiment with Malme-3M it was 0.055 µM (active); in the experiment on CCRF-CEM it was 75 µM (inactive). In addition, the GI50 with OVCAR-5 is > 100 µM (inactive); in the experiment on NCI-H23 it was > 100 µM (inactive); with T47D it was > 100 µM (inactive); in the experiment with SR it was 86.9 µM (inactive); in the experiment with NCI/ADR-RES, > 100 µM (inactive); with SF-539, 11 µM (inactive). Moreover, the GI50 in the experiment with HCT-116 is 87.5 µM (inactive); in the experiment with A498 it was > 100 µM (inactive); in the experiment with UACC-257, > 100 µM (inactive); in the experiment with OVCAR-3, > 100 µM (inactive); with SNB-19, > 100 µM (inactive); in the experiment with U-251, > 100 µM (inactive). The GI50 in the experiment on CAKI-1 was > 100 µM (inactive).

In the case of `Clc1ccccc1/C=C/c1nsc(/C=C/c2ccccc2Cl)n1`, the GI50 with HOP-62 is 36.6 µM (inactive); in the experiment on OVCAR-4, 81.7 µM (inactive); in the experiment with SK-OV-3, 70.1 µM (inactive); with SNB-75 it was 71.4 µM (inactive); in the experiment on IGROV-1 it was 84.1 µM (inactive); in the experiment on Malme-3M it was 53.7 µM (inactive). For the same compound, the GI50 in the experiment on CCRF-CEM was 22.7 µM (inactive); with OVCAR-5, > 100 µM (inactive); in the experiment on T47D, 10.4 µM (inactive); in the experiment with SR, 22.1 µM (inactive); in the experiment with NCI/ADR-RES it was 45.2 µM (inactive); with SF-539, 78.5 µM (inactive). Moreover, the GI50 with HCT-116 is 34.8 µM (inactive); with A498, > 100 µM (inactive); in the experiment on UACC-257, 26.5 µM (inactive); with OVCAR-3, 40.1 µM (inactive); in the experiment on SNB-19, > 100 µM (inactive); with U-251, 34.8 µM (inactive). Moreover, in the experiment on CAKI-1, the GI50 is > 100 µM (inactive).

Regarding `N/C(=N\Nc1ccc(C(=O)O)cc1)c1cnccn1`, the GI50 in the experiment with HOP-62 is > 100 µM (inactive); in the experiment with OVCAR-4 it was > 100 µM (inactive); in the experiment on SK-OV-3 it was > 100 µM (inactive); with SNB-75 it was > 100 µM (inactive); with IGROV-1, > 100 µM (inactive); with Malme-3M, 37.2 µM (inactive). Moreover, the GI50 in the experiment on OVCAR-5, in the experiment on NCI-H23, with T47D, in the experiment with SR, in the experiment on NCI/ADR-RES and in the experiment with SF-539 was > 100 µM (inactive) each time. Moreover, the GI50 in the experiment with HCT-116, in the experiment with A498, in the experiment on UACC-257, in the experiment on OVCAR-3, with SNB-19 and with U-251 was > 100 µM (inactive) in each case. In addition, in the experiment on CAKI-1, the GI50 was > 100 µM (inactive).

`CN(/N=C(\C(=O)O)c1ccccc1)C1=NCCCN1`: the GI50 in the experiment on HOP-62, in the experiment with OVCAR-4, in the experiment with SK-OV-3, with SNB-75, with IGROV-1 and with Malme-3M was > 100 µM (inactive) each time. Further, the GI50 in the experiment with CCRF-CEM, in the experiment with OVCAR-5, with NCI-H23, in the experiment with T47D, in the experiment on SR and in the experiment on NCI/ADR-RES was > 100 µM (inactive) each time. For the same compound, the GI50 in the experiment with SF-539, in the experiment with HCT-116, in the experiment with A498, in the experiment on UACC-257, in the experiment on OVCAR-3 and in the experiment on U-251 was > 100 µM (inactive) in each case. Moreover, the GI50 in the experiment with CAKI-1 was > 100 µM (inactive).

In the case of `CC(C)(CCC(C)(C)N1OC1c1ccccc1)N1OC1c1ccccc1` (stereo not drawn), the GI50 with OVCAR-4 is 86.3 µM (inactive); in the experiment on SK-OV-3, 62.8 µM (inactive); in the experiment with SNB-75, > 100 µM (inactive); with Malme-3M, > 100 µM (inactive); in the experiment on CCRF-CEM, 9.31 µM (inactive); in the experiment with NCI-H23 it was 55.3 µM (inactive). Further, the GI50 in the experiment with T47D is 41.1 µM (inactive); in the experiment with SR, 14.1 µM (inactive); in the experiment with NCI/ADR-RES it was 58.6 µM (inactive); in the experiment with SF-539 it was 22.4 µM (inactive); in the experiment with HCT-116, 56.8 µM (inactive); in the experiment with A498 it was 32 µM (inactive). The GI50 in the experiment with UACC-257 was 25.1 µM (inactive); in the experiment on SNB-19 it was 47.5 µM (inactive); in the experiment with U-251, 72.9 µM (inactive); in the experiment with CAKI-1, 23.4 µM (inactive).

With `CC(C)(C)c1cc(C2NCCO2)cc(C(C)(C)C)c1O` (stereo not drawn), the GI50 was 30.1 µM (inactive) with HOP-62; > 100 µM (inactive) in the experiment with OVCAR-4; 32.1 µM (inactive) with SK-OV-3; 10.8 µM (inactive) with SNB-75; 96.6 µM (inactive) in the experiment with IGROV-1; > 100 µM (inactive) in the experiment on Malme-3M. Moreover, the GI50 in the experiment on CCRF-CEM was > 100 µM (inactive); in the experiment on OVCAR-5, > 100 µM (inactive); in the experiment on NCI-H23, 51.4 µM (inactive); in the experiment with T47D it was 0.0538 µM (active); in the experiment on SR, > 100 µM (inactive); with NCI/ADR-RES, > 100 µM (inactive). Also, the GI50 in the experiment on SF-539 is > 100 µM (inactive); in the experiment on HCT-116, > 100 µM (inactive); in the experiment with A498, > 100 µM (inactive); with UACC-257 it was > 100 µM (inactive); in the experiment with OVCAR-3, > 100 µM (inactive); in the experiment with U-251, 37.1 µM (inactive). Further, the GI50 with CAKI-1 is 45.9 µM (inactive).

Turning to `CCCCc1c(N(C)C)c(OC(C)=O)c(-c2cn(C)c3ccccc23)oc1=O`, the GI50 in the experiment with HOP-62 is 19.8 µM (inactive); in the experiment on OVCAR-4, 33.7 µM (inactive); with SK-OV-3, 32.4 µM (inactive); in the experiment on SNB-75, 25.1 µM (inactive); in the experiment with Malme-3M it was 24.8 µM (inactive); in the experiment with CCRF-CEM, 33.4 µM (inactive). For the same compound, the GI50 was 31.6 µM (inactive) with OVCAR-5; 22.5 µM (inactive) with NCI-H23; 29.6 µM (inactive) in the experiment with T47D; > 100 µM (inactive) in the experiment with SR; 20.3 µM (inactive) in the experiment with NCI/ADR-RES; 22.3 µM (inactive) with SF-539. Besides, the GI50 is 17.3 µM (inactive) in the experiment on HCT-116; 28.8 µM (inactive) in the experiment with A498; 22.5 µM (inactive) with UACC-257; 25.9 µM (inactive) in the experiment on OVCAR-3; 28.7 µM (inactive) in the experiment with SNB-19; 22 µM (inactive) in the experiment with U-251. The GI50 in the experiment with CAKI-1 is 30.7 µM (inactive).

Turning to `COc1cc2nc(-c3cccs3)nc(N3C(c4cc(OC)c(OC)c(OC)c4)=NNC(=O)c4ccccc43)c2cc1OC`, the GI50 in the experiment on HOP-62 is 66.8 µM (inactive); with OVCAR-4 it was 13.9 µM (inactive); with SK-OV-3, 71.1 µM (inactive); in the experiment on SNB-75, 25.7 µM (inactive); with IGROV-1 it was 33.9 µM (inactive); in the experiment with Malme-3M, 18.7 µM (inactive). The GI50 in the experiment with OVCAR-5 is 21.8 µM (inactive); with NCI-H23, 14 µM (inactive); in the experiment on T47D it was 39 µM (inactive); in the experiment with SR it was 6.93 µM (inactive); in the experiment on NCI/ADR-RES, 3.4 µM (inactive); with SF-539, 21.8 µM (inactive). Also, the GI50 with HCT-116 was > 100 µM (inactive); in the experiment on A498, > 100 µM (inactive); in the experiment with UACC-257 it was 35.3 µM (inactive); with OVCAR-3, 6.43 µM (inactive); with SNB-19 it was 16.4 µM (inactive); with U-251, 15.8 µM (inactive). Moreover, the GI50 in the experiment with CAKI-1 is 52.8 µM (inactive).
